In publication PMC9653409, “Generative deep learning enables the discovery of a potent and selective RIPK1 inhibitor” (Nature Communications, 2022):
Where two headings read alike, the source gives them in different places.

What was measured:
Experiment in all cases: Kinase inhibitory activity profiling of RI-962@10 µM (406 kinases, Eurofins)
Format in all cases: biochemical
[1] = biological target: panel of human kinases (kinase named in endpoint) (Homo sapiens, UniProt P42336, E545K); conditions: 10 µM; read-out: Activity (%), PI3(p110a(E545K)/p85a)
Procedure, shortened: (§1)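 Radiometric filter-binding kinase assays: enzyme preincubated 15 min with compound in 8 mM MOPS pH 7.0, 0.2 mM EDTA, 250 μM peptide substrate, 10 mM magnesium acetate, 10 μM [γ-33P]-ATP. Reaction started with Mg/ATP, run 40 min at room temperature, stopped with phosphoric acid; 33P incorporation read by scintillation counting. Other kinases by similar protocols.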

[2] = biological target: panel of human kinases (kinase named in endpoint) (Homo sapiens, UniProt Q8IVH8); conditions: 10 µM; read-out: Activity (%), MAP4K3(h)
Procedure, shortened: as §1

[3] = biological target: panel of human kinases (kinase named in endpoint) (Homo sapiens, UniProt Q8TF76); conditions: 10 µM; read-out: Activity (%), Haspin(h)
Procedure, shortened: as §1

[4] = biological target: panel of human kinases (kinase named in endpoint) (Homo sapiens, UniProt P00533, L861Q); conditions: 10 µM; read-out: Activity (%), EGFR(L861Q)(h)
Procedure, shortened: as §1

[5] = biological target: panel of human kinases (kinase named in endpoint) (Homo sapiens, UniProt P00519, T315I); conditions: 10 µM; read-out: Activity (%), Abl(T315I)(h)
Procedure, shortened: as §1

[6] = biological target: panel of human kinases (kinase named in endpoint) (Homo sapiens, UniProt Q14004); conditions: read-out: Activity (%), CDK13/cyclinK(h)
Procedure, shortened: as §1

[7] = biological target: panel of human kinases (kinase named in endpoint) (Homo sapiens, UniProt Q15831); conditions: 10 µM; read-out: Activity (%), LKB1(h)
Procedure, shortened: as §1

[8] = biological target: panel of human kinases (kinase named in endpoint) (Homo sapiens, UniProt P24941); conditions: 10 µM
Procedure, shortened: as §1

[9] = biological target: panel of human kinases (kinase named in endpoint) (Homo sapiens, UniProt Q96PY6); conditions: 10 µM; read-out: Activity (%), NEK1(h)
Procedure, shortened: as §1

[10] = biological target: panel of human kinases (kinase named in endpoint) (Homo sapiens, UniProt P51617); conditions: 10 µM; read-out: Activity (%), IRAK1(h)
Procedure, shortened: as §1

[11] = biological target: panel of human kinases (kinase named in endpoint) (Homo sapiens, UniProt Q9Y4K4); conditions: 10 µM; read-out: Activity (%), MAP4K5(h)
Procedure, shortened: as §1

[12] = biological target: panel of human kinases (kinase named in endpoint) (Homo sapiens, UniProt P42681); conditions: 10 µM; read-out: Activity (%), Txk(h)
Procedure, shortened: as §1

[13] = biological target: panel of human kinases (kinase named in endpoint) (Homo sapiens, UniProt Q9BXA7); conditions: 10 µM; read-out: Activity (%), TSSK1(h)
Procedure, shortened: as §1

[14] = biological target: panel of human kinases (kinase named in endpoint) (Homo sapiens, UniProt Q13177); conditions: 10 µM; read-out: Activity (%), PAK2(h)
Procedure, shortened: as §1

[15] = biological target: panel of human kinases (kinase named in endpoint) (Homo sapiens, UniProt Q13976); conditions: 10 µM; read-out: Activity (%), PKG1α(h)
Procedure, shortened: as §1

[16] = biological target: panel of human kinases (kinase named in endpoint) (Homo sapiens, UniProt Q96PN8); conditions: 10 µM; read-out: Activity (%), TSSK3(h)
Procedure, shortened: as §1

[17] = biological target: panel of human kinases (kinase named in endpoint) (Homo sapiens, UniProt Q9Y2H1); conditions: 10 µM; read-out: Activity (%), NDR2(h)
Procedure, shortened: as §1

[18] = biological target: panel of human kinases (kinase named in endpoint) (Homo sapiens, UniProt Q9NYL2); conditions: 10 µM; read-out: Activity (%), ZAK(h)
Procedure, shortened: as §1

[19] = biological target: panel of human kinases (kinase named in endpoint) (Homo sapiens, UniProt P08922); conditions: 10 µM; read-out: Activity (%), Ros(h)
Procedure, shortened: as §1

[20] = biological target: panel of human kinases (kinase named in endpoint) (Homo sapiens, UniProt P06239); conditions: 10 µM
Procedure, shortened: as §1

[21] = biological target: panel of human kinases (kinase named in endpoint) (Homo sapiens, UniProt P78527); conditions: 10 µM; read-out: Activity (%), DNA-PK(h)
Procedure, shortened: as §1

[22] = biological target: panel of human kinases (kinase named in endpoint) (Homo sapiens, UniProt P17252); conditions: 10 µM; read-out: Activity (%), PKCα(h)
Procedure, shortened: as §1

[23] = biological target: panel of human kinases (kinase named in endpoint) (Homo sapiens, UniProt P49759); conditions: 10 µM; read-out: Activity (%), CLK1(h)
Procedure, shortened: as §1

[24] = biological target: panel of human kinases (kinase named in endpoint) (Homo sapiens, UniProt Q16512); conditions: 10 µM; read-out: Activity (%), PRK1(h)
Procedure, shortened: as §1

[25] = biological target: panel of human kinases (kinase named in endpoint) (Homo sapiens, UniProt P31751); conditions: 10 µM; read-out: Activity (%), PKBβ(h)
Procedure, shortened: as §1

panel of human kinases (kinase named in endpoint) (Homo sapiens, UniProt P06239), sequence (P06239 whole entry): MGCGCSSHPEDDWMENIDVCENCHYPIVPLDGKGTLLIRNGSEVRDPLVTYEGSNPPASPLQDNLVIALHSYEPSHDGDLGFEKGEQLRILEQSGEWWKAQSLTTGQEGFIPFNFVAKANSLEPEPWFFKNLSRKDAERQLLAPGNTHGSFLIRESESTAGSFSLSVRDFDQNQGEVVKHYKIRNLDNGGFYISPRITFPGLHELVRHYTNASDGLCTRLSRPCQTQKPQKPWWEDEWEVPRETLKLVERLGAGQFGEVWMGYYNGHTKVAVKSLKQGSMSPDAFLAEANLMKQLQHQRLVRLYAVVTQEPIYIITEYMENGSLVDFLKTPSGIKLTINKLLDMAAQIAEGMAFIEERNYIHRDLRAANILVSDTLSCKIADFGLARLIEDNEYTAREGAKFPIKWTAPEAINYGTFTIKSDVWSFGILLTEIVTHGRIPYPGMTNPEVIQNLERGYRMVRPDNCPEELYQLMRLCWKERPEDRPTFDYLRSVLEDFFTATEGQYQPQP
panel of human kinases (kinase named in endpoint) (Homo sapiens, UniProt Q8IVH8), sequence (Q8IVH8 whole entry): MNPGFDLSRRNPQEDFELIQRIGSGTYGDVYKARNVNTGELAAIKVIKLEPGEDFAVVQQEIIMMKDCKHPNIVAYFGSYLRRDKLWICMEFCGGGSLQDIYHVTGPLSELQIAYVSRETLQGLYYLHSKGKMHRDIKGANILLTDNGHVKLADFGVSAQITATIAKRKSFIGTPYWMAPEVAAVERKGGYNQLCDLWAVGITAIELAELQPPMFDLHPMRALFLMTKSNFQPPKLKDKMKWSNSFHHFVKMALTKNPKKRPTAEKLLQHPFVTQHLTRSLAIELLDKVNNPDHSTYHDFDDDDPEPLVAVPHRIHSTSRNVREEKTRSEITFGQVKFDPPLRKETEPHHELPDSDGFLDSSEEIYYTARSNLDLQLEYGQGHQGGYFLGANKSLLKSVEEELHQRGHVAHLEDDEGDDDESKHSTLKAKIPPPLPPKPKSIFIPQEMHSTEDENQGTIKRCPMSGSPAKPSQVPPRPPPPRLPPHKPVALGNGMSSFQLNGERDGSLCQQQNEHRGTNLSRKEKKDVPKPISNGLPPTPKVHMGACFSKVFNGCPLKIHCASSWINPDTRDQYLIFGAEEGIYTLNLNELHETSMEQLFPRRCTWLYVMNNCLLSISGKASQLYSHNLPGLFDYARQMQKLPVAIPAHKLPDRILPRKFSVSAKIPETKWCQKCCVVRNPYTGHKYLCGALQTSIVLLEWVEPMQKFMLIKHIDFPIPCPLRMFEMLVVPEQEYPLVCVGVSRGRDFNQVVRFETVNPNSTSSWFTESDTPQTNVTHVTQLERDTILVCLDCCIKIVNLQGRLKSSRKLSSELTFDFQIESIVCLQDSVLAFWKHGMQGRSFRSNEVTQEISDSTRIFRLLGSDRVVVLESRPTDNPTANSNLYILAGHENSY
panel of human kinases (kinase named in endpoint) (Homo sapiens, UniProt P42681), sequence (P42681 whole entry): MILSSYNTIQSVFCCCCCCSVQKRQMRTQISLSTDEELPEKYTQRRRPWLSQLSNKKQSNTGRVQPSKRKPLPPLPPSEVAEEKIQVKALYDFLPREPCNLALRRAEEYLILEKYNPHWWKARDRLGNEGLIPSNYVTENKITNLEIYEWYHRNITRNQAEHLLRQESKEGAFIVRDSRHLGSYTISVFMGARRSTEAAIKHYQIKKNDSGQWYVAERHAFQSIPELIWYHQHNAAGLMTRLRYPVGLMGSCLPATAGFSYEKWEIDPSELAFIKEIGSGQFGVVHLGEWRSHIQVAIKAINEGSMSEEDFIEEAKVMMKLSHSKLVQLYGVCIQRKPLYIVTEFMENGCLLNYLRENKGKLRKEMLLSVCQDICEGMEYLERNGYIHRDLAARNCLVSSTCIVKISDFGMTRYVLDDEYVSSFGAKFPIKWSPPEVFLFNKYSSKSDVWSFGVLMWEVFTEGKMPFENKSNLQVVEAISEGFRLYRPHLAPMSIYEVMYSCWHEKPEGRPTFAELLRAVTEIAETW
panel of human kinases (kinase named in endpoint) (Homo sapiens, UniProt Q14004), sequence (Q14004 whole entry): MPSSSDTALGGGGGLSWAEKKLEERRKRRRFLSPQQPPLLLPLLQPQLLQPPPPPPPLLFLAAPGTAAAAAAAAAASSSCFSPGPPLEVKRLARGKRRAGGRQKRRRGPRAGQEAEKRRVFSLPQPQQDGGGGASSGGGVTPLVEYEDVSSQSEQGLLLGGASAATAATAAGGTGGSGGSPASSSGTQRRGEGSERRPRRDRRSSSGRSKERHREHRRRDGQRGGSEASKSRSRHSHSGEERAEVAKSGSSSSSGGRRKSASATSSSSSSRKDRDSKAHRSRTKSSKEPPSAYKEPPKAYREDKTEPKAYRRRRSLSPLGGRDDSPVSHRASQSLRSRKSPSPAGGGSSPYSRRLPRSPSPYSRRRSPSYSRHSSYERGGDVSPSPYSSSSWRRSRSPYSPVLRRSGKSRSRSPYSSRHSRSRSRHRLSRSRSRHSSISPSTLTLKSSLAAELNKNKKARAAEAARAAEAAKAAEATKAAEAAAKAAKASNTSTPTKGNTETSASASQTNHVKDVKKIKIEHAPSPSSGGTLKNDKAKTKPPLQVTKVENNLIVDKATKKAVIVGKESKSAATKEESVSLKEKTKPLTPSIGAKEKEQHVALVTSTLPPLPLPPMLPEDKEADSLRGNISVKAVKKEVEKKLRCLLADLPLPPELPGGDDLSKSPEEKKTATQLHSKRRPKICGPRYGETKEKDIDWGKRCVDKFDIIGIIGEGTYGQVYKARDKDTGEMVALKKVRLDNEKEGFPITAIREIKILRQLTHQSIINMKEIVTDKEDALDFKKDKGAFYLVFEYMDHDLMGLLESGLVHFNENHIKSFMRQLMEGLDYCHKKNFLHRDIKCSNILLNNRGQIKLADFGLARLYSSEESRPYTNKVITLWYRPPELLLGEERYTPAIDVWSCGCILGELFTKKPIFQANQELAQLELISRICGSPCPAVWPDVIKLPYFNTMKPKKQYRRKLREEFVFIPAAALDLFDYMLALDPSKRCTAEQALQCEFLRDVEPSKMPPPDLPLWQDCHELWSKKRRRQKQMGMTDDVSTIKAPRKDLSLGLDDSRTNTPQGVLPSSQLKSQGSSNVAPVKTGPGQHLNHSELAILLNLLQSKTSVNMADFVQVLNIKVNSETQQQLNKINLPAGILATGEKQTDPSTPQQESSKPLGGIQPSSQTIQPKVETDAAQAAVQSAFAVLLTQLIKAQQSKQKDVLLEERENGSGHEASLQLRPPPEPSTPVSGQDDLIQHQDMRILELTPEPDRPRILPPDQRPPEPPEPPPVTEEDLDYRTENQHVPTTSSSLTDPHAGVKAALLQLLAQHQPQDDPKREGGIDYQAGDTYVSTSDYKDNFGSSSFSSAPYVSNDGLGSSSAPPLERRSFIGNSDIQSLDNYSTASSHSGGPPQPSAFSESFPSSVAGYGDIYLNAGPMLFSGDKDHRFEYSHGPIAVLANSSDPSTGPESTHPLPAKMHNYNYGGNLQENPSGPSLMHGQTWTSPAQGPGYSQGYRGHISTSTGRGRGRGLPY
panel of human kinases (kinase named in endpoint) (Homo sapiens, UniProt P51617), sequence (P51617 whole entry): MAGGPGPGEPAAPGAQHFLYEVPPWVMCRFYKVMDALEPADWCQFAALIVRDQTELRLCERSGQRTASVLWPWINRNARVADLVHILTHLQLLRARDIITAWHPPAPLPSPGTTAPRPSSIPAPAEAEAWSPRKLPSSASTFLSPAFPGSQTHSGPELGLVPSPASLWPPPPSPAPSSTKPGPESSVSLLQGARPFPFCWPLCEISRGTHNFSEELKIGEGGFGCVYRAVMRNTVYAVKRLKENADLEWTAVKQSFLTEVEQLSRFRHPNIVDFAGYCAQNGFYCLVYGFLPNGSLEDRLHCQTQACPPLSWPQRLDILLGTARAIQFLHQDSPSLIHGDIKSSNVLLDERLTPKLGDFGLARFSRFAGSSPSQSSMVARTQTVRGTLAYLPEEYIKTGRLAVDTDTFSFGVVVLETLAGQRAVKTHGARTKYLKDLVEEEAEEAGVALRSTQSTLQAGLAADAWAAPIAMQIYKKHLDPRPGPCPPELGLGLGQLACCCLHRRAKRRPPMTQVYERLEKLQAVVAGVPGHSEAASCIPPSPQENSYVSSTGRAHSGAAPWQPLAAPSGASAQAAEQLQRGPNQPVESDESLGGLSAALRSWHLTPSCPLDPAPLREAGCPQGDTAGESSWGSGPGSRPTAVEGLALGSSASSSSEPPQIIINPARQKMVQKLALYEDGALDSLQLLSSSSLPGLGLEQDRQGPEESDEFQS

SMILES: CC(C)C(=O)Nc1nc2cc(-c3ccc4c(c3)c(C(=O)NC(C)c3ccccc3)cn4C)ccn2n1 (stereo not drawn) [RI-962]
- activity at 10 µM [1]: 96%
- activity at 10 µM [2]: 85%
- activity at 10 µM [3]: 107%
- activity at 10 µM [4]: 82%
- activity at 10 µM [5]: 132%
- activity at 10 µM [6]: 100%
- activity at 10 µM [7]: 105%
- activity at 10 µM ([8]; read-out: Activity (%), CDK2/cyclinA(h)): 122%
- activity at 10 µM ([8]; read-out: Activity (%), CDK2/cyclinE(h)): 92%
- activity at 10 µM [9]: 93%
- activity at 10 µM [10]: 103%
- activity at 10 µM [11]: 100%
- activity at 10 µM [12]: 94%
- activity at 10 µM [13]: 84%
- activity at 10 µM [14]: 84%
- activity at 10 µM [15]: 101%
- activity at 10 µM [16]: 94%
- activity at 10 µM [17]: 85%
- activity at 10 µM [18]: 72%
- activity at 10 µM [19]: 106%
- activity at 10 µM ([20]; read-out: Activity (%), Lck(h)): 137%
- activity at 10 µM ([20]; read-out: Activity (%), Lck(h) activated): 81%
- activity at 10 µM [21]: 100%
- activity at 10 µM [22]: 97%
- activity at 10 µM [23]: 109%
- activity at 10 µM [24]: 109%
- activity at 10 µM [25]: 92%
